Experimental data taken from ChEMBL document CHEMBL1126538, “A novel class of 1,3-oxathiolane nucleoside analogues having potent anti-HIV activity” (1993).
In brackets after ≈: the same amount, converted by molar mass.

Experiments:
Type in all cases: functional
MT4 [1] = test: Inhibitory concentration against HIV-1 in MT-4 cell line.; details: Homo sapiens, read-out: ID50 (the source's name)
MT4 [2] = test: Cytotoxic activity against MT-4 cell line; details: Homo sapiens, read-out: CD50 (the source's name)
MT4 [3] = test: Compound was tested for its inhibitory concentration against HIV-1 in MT-4 cell line; details: Homo sapiens, read-out: ID50 (the source's name)

Compound: Cc1cn([C@@H]2COC(CO)S2)c(=O)[nH]c1=O (some centres not stated)
- IC50 (MT4 [1]): > 100 µg/mL
- CC50 (MT4 [2]): > 100 µg/mL

Compound: Nc1nc(=O)n([C@@H]2COC(CO)S2)cc1F (some centres not stated)
- IC50 (MT4 [1]): > 100 µg/mL
- CC50 (MT4 [2]): > 100 µg/mL

Compound: Nc1nc(O)c2ncn(C3COC(CO)S3)c2n1 (configuration not stated)
- IC50 (MT4 [1]): > 100 µg/mL
- CC50 (MT4 [2]): > 100 µg/mL

Compound: Cc1cn(C2COC(CO)S2)c(=O)[nH]c1=O (configuration not stated)
- IC50 (MT4 [1]): > 100 µg/mL
- CC50 (MT4 [2]): > 100 µg/mL

Compound: Nc1ncnc2c1ncn2C1COC(CO)S1 (configuration not stated)
- IC50 (MT4 [1]): 2.1 µg/mL (≈ 8.29 µM)
- CC50 (MT4 [2]): 100 µg/mL (≈ 395 µM)

Compound: Nc1ncnc2c1ncn2[C@@H]1CO[C@H](CO)S1
- IC50 (MT4 [1]): 50 µg/mL (≈ 197 µM)
- CC50 (MT4 [2]): 100 µg/mL (≈ 395 µM)

Compound: Nc1ccn([C@@H]2COC(CO)S2)c(=O)n1 (some centres not stated)
- IC50 (MT4 [1]): > 100 µg/mL
- CC50 (MT4 [2]): > 100 µg/mL

Compound: Nc1ccn(C2COC(CO)S2)c(=O)n1 (configuration not stated)
- IC50 (MT4 [3]): > 10 µg/mL
- CC50 (MT4 [2]): 10 µg/mL (≈ 43.6 µM)

Compound: O=c1ccn(C2COC(CO)S2)c(=O)[nH]1 (configuration not stated)
- IC50 (MT4 [1]): > 100 µg/mL
- CC50 (MT4 [2]): > 100 µg/mL

Compound: Nc1ccn([C@@H]2CS[C@H](CO)O2)c(=O)n1 [LAMIVUDINE]
- IC50 (MT4 [1]): 0.13 µg/mL (≈ 0.567 µM)
- CC50 (MT4 [2]): > 100 µg/mL

Compound: Nc1ncnc2c1ncn2[C@@H]1COC(CO)S1 (some centres not stated)
- IC50 (MT4 [1]): > 100 µg/mL
- CC50 (MT4 [2]): > 100 µg/mL

Compound: Cc1cn([C@H]2C[C@H](N=[N+]=[N-])[C@@H](CO)O2)c(=O)[nH]c1=O [ZIDOVUDINE]
- IC50 (MT4 [1]): 0.06 µg/mL (≈ 0.225 µM)
- CC50 (MT4 [2]): > 1 µg/mL

Compound: Nc1nc(=O)n(C2COC(CO)S2)cc1F (configuration not stated)
- IC50 (MT4 [1]): 2.5 µg/mL (≈ 10.1 µM)
- CC50 (MT4 [2]): > 100 µg/mL

Compound: Nc1ncnc2c1ncn2[C@H]1CO[C@@H](CO)S1
- IC50 (MT4 [1]): 1.1 µg/mL (≈ 4.34 µM)
- CC50 (MT4 [2]): 100 µg/mL (≈ 395 µM)

Compound: O=c1ccn([C@@H]2COC(CO)S2)c(=O)[nH]1 (some centres not stated)
- IC50 (MT4 [1]): > 100 µg/mL
- CC50 (MT4 [2]): > 100 µg/mL

Compound: O=c1[nH]cnc2c1ncn2[C@H]1CC[C@@H](CO)O1 [DIDANOSINE]
- IC50 (MT4 [1]): 2.3 µg/mL (≈ 9.74 µM)
- CC50 (MT4 [2]): 100 µg/mL (≈ 423 µM)
